{
  "source": "patent US5436271A",
  "about": "“N^6 -(hydrazinoiminomethyl)lysine and method of inhibiting nitric oxide formation in body” (Cornell Research Foundation, Inc., priority 1993, dated 1995)",
  "key": {"[1]": {"tested_on": "nitric oxide synthase", "test": "Efficacy on arterial blood pressure in endotoxin-treated anesthetized dog (Example IV)", "format": "in vivo", "description": "To test the efficacy of N^6 -(hydrazinoiminomethyl)-L-lysine, a 28 kg fasted dog was anesthetized with pentobarbital (25 mg/kg, i.v.), orotracheally intubated to allow ventilation with a Harvard pump, and instrumented to allow arterial blood pressure to be monitored via a central catheter. After a constant normal blood pressure had been observed for about 90 min., a solution containing 2 mg/kg body weight of endotoxin (E. coli lipopolysaccharide obtained from Sigma Chemical Co.) was given as an intravenous bolus injection. […] When the mean arterial blood pressure had declined to about 70 mm Hg, a bolus intravenous injection of 20 mg/kg of N^6 -(hydrazinoiminomethyl)-L-lysine monohydrochloride (denote HAA) was given. […] At that time, the dog was given a bolus intravenous injection of 400 mg/kg of L-arginine (denoted L-ARG), the substrate of nitric oxide synthase and a specific antagonist of nitric oxide synthase inhibitors competing for the L-arginine binding site."}, "[2]": {"molecular_target": "T1, cytokine-induced nitric oxide synthase isozyme (Mus musculus, UniProt P29477)", "T1 construct": "endogenous in cells; host or cells: cultured mouse brain endothelial cells induced with gamma-interferon and tumor necrosis factor", "test": "Nitrite formation by cytokine-induced cultured mouse brain endothelial cells (Example V)", "format": "cell-based", "description": "In vitro studies with cultured endothelial cells were carried out to test the efficacy of N^6 -(hydrazinoiminomethyl)-L-lysine as an inhibitor of the cytokine-induced nitric oxide synthase isozyme relative to established inhibitors. Cultured mouse brain endothelial cells were grown for 18 hrs. in the presence of 1000 units/ml of gamma-interferon and 5000 units/ml of tumor necrosis factor, conditions shown previously to cause enzyme induction (R. Kilbourn and P. Belloni (1990) in \"Nitric Oxide from L-Arginine: A Bioregulatory System\" (S. Moncada and E. A. Higgs, eds.) pp. 61-67, Elsevier Science Publishers, Amsterdam). For control cells the culture media contained 50% Dulbecco's Modified Eagle's Medium, 45% Ham's F12 Medium with 5% fetal calf serum. […] Nitric oxide formation was monitored by following the increase in the concentration of nitrite in the culture medium. Nitric oxide spontaneously oxidizes to nitrite under the incubator conditions."}, "[3]": {"test": "Toxicity in awake dog, i.v. bolus plus infusion (Example II)", "format": "in vivo", "description": "To test the toxicity of N^6 -(hydrazinoiminomethyl)-L-lysine, a 30 kg awake dog was administered the hydrochloride salt of the drug at a dose of 20 mg/kg body weight as a single intravenous (i.v.) bolus. […] After 30 min., an additional dose of 20 mg/kg was given and an i.v. infusion of drug at a rate of 10 mg/kg body weight per hour was started. The infusion was continued for 5 hours. […] The spasms ended within 24 hours (48 hours after the experiment started), and the dog appeared normal and well in all respects."}, "[4]": {"set-up": "species or system Swiss-Webster mice", "settings": "mouse, in vivo, sc", "description": "To test the long-term toxicity of N^6 -(hydrazinoiminomethyl)-L-lysine,0.209 ml of a 200 mM solution of the hydrochloride salt of the drug (48 mg/ml) was loaded into each of three Alzet Osmotic Pumps (Model 2001), and the pumps were implanted subcutaneously on the backs of three individual Swiss-Webster mice (wts. 30.7, 34.8 and 33.4 gms) under pentobarbital anesthesia. Each pump delivered the solution of drug at a rate of […] for 1 week."}, "[5]": {"molecular_target": "T2, constitutive isoform of nitric oxide synthase (Rattus norvegicus, UniProt Q62600)", "T2 construct": "from tissue; host or cells: isolated rat aortic rings (2-3 mm)", "T2 sequence (Q62600 2-1202 limits assumed)": "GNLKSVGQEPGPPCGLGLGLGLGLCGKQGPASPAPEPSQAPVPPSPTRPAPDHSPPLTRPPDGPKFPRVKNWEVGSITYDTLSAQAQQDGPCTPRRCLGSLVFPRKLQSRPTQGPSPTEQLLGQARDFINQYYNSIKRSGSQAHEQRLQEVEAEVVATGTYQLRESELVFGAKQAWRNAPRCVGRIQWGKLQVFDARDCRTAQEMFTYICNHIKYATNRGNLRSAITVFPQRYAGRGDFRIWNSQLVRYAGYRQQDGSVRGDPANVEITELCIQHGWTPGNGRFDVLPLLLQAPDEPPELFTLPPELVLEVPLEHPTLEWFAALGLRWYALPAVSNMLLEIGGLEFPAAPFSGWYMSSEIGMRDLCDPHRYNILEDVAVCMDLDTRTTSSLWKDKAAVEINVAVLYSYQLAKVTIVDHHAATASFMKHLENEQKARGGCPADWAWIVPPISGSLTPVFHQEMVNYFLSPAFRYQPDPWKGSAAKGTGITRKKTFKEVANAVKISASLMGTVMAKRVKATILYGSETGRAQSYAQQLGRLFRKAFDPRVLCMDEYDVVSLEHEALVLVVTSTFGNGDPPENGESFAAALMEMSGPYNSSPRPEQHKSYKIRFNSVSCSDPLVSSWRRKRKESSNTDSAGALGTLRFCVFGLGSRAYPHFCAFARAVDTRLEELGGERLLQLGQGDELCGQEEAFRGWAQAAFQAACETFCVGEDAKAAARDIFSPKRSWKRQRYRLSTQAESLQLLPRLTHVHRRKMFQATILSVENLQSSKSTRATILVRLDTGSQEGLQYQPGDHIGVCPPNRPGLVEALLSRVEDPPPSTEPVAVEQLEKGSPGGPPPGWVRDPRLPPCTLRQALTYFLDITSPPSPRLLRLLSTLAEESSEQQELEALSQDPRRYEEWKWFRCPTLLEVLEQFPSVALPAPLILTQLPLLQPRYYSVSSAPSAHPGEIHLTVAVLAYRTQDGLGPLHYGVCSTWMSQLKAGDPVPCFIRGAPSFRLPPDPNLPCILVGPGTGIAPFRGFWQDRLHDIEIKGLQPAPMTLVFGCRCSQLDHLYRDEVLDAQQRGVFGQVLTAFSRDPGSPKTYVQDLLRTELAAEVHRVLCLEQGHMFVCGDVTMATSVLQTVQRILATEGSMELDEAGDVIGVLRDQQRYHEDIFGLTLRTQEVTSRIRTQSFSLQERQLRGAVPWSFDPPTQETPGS", "test": "Inhibition of acetylcholine relaxation of phenylephrine-contracted rat aortic rings (Example VI)", "description": "In vitro studies with rat aortic rings were carried out to test the effect of N^6 -(hydrazinoiminomethyl)-L-lysine relative to other known inhibitors of the constitutive isoform of nitric oxide synthase. Aortic rings (2-3 mm) were isolated, suspended under a resting tension of 2.00 gm in 5 ml glass chambers containing Krebs-Henseleit solution gassed with 95% 02 and 5% CO2 at 37° C. as described previously for vascular rings from guinea pigs (O.A. Fasehun et al, (1990) J. Pharmacol. Exp. Ther. 255, 1348-1353). The aortic rings were then contracted by addition of 0.03 μM phenylephrine to the bathing solution, and the tension of the rings was measured. Acetylcholine, an agonist that stimulates the formation of nitric oxide by constitutive nitric oxide synthase in the vascular endothelium, was next added to a final concentration of 1 μM. The nitric oxide formed in response to acetylcholine causes the vascular smooth muscle of the aortic rings to relax, and the decrease in tension is measured. Inhibitors of nitric oxide synthase decrease the extent to which acetylcholine causes relaxation of the phenylephrine-contracted aortic rings. In the study, rings were contracted with phenylephrine, relaxed with acetylcholine, and then increasing doses of inhibitor were added to the bathing solution to overcome the effect of acetylcholine. The dose of inhibitor is denoted on the X-axis."}, "[6]": {"tested_on": "inducible isoform of nitric oxide synthase", "settings": "cited from earlier work"}, "[7]": {"settings": "ratio of ED 50% approx., inducible isoform"}, "[8]": {"settings": "rat aortic rings, 0.03 μM phenylephrine, 1 μM acetylcholine, read-out: concentration needed to overcome 50% of the relaxation caused by acetylcholine (ED50)"}},
  "note": "pIC50: −log10 of the molar value. Read-outs that look alike come from different tables or passages of the source.",
  "data": [
    {"smiles": "NN=C(N)NCCCCC(N)C(=O)O", "note": "(racemic) [N^6 -(hydrazinoiminomethyl)-D,L-lysine, N^6 -(Hydrazinoiminomethyl)-D,L-lysine]", "values": [
      {"measurement": "blood pressure increase compared with L-form", "setting": "[1]; as Example IV, twice the dosage of the L-form", "result": "substantially equal results"},
      {"measurement": "inhibition of nitrite formation by induced endothelial cells compared with L-form", "setting": "[2]; as Example V, twice the concentration of the L-form", "result": "substantially equal results"}
    ]},
    {"smiles": "NN=C(N)NCCCC[C@H](N)C(=O)O", "note": "[HAA, N^6 -(hydrazinoiminomethyl)-L-lysine]", "values": [
      {"measurement": "late signs of toxicity", "setting": "[3]; dog, in vivo", "result": "periodic isolated myoclonic muscle spasms"},
      {"measurement": "time until muscle spasms ended", "setting": "[3]; dog, in vivo", "result": "≤ 24", "unit": "h"},
      {"measurement": "signs of toxicity", "setting": "[3]; dog, in vivo, iv, 20 mg/kg", "result": "no signs of toxicity"},
      {"measurement": "survival", "setting": "[4]", "result": "> 4", "unit": "weeks"},
      {"measurement": "increase of blood pressure", "setting": "[1]; endotoxin 2 mg/kg dog, mean arterial pressure about 70 mm Hg, 20 mg/kg i.v. bolus, within a few minutes", "result": "about 30 mm Hg"},
      {"measurement": "time blood pressure remained in physiologically acceptable range", "setting": "[1]; endotoxin dog, after 20 mg/kg i.v. bolus", "result": "about 45 min"},
      {"measurement": "pIC50", "setting": "[2]; mouse brain endothelial cells, 18 hrs with gamma-interferon 1000 units/ml and tumor necrosis factor 5000 units/ml, read-out: dose required for approximately 50% inhibition (ED 50% approx.) of nitrite formation", "result": "~4.81"},
      {"measurement": "potency relative to NAA", "setting": "[2]; [7]", "result": "approximately 4 times"},
      {"measurement": "potency relative to NMMA", "setting": "[2]; [7]", "result": "approximately 8 times"},
      {"measurement": "pIC50", "setting": "[5]; [8]", "result": "~4.99"}
    ]},
    {"smiles": "N=C(N)NCCC[C@H](N)C(=O)O", "note": "[L-ARG, L-arginine, reference compound]", "values": [
      {"measurement": "blood pressure after reversal by substrate", "setting": "[1]; endotoxin dog treated with HAA, then 400 mg/kg i.v. bolus", "result": "dropped precipitously to a level characteristic of septic (endotoxic) shock"}
    ]},
    {"smiles": "N/N=C(\\N)NCCC[C@H](N)C(=O)O", "note": "[NAA, N^G -amino-L-arginine, reference compound]", "values": [
      {"measurement": "toxicity at the same dose under similar circumstances", "setting": "[3]; awake dog, same dose as N6-(hydrazinoiminomethyl)-L-lysine", "result": "major seizures"},
      {"measurement": "pIC50", "setting": "[2]", "result": "~4.20"},
      {"measurement": "pIC50", "setting": "[5]", "result": "~5.38"}
    ]},
    {"smiles": "CNC(=N)NCCC[C@H](N)C(=O)O", "note": "[NMMA, N^G -methyl-L-arginine]", "values": [
      {"measurement": "pIC50", "setting": "[5]; [8]", "result": "~4.99"}
    ]},
    {"smiles": "N=C(NCCC[C@H](N)C(=O)O)N[N+](=O)[O-]", "note": "[NNA, N^G -nitro-L-arginine]", "values": [
      {"measurement": "pIC50", "setting": "[5]; [8]", "result": "~5.82"},
      {"measurement": "rank as inhibitor of the inducible isoform among NNA, NAA, NMMA, HAA", "setting": "[6]", "result": "least effective inhibitor of the inducible isoform"}
    ]}
  ]
}
